The experiment relates to Raji tumor-bearing nude mice. The experiment is described as follows: In vivo vasopermeability / biodistribution study, Raji lymphoma model (tumor uptake of 125I-Lym-1 F(ab')2 after pre-treatment).

Method: The Raji lymphoma cell line was used to produce heterotransplants in 6-week-old female nude mice by the subcutaneous injection of a 0.2 ml inoculum consisting of 4×10^7 Raji cells and 4×10^6 human fetal fibroblast feeder cells in the left thigh. Three days prior to injection, the mice were irradiated with 400 rads using a cesium irradiator to ensure a high take rate of the implanted cells. The tumors were grown for 14-18 days until they grew to approximately 1 cm in diameter.
To test the relative effects of the immunoconjugates on the biodistribution and tumor uptake of Lym-1 or TNT-1 in tumor-bearing mice, separate groups of 4-5 mice were given intravenous injections of 30 μg of antibody alone or antibody conjugate. At 2.5 hr after injection, each group received 50 μCi of ^125I-labeled Lym-1 or TNT-1 F(ab′)2 fragment as tracer.
All animals were sacrificed 72 hr later, by sodium pentobarbital overdose, for biodistribution analysis. Various organs, blood, and tumor were removed, weighed, and samples were counted in a gamma counter. For each mouse, data were expressed as tumor:organ ratio (cpm per gram tumor/cpm per gram organ) and percent injected dose/gram (% ID/g).

As to “3C: synthetic IL-2 peptide, amino acids 22-58 (SEQ ID NO:1), permeability enhancing peptide (EMILNGINNYKNPKLTRMLTFKFYMPKKATELKHLQC; listed as Homo sapiens) [Fragment 3C]”, under “i.v., enhanced Lym-1 uptake relative to Lym-1/IL-2 conjugate, 30-40 pM of peptide per assay”, the “Vasopermeability (% Lym-1/IL-2)” value is 0 % Lym-1/IL-2. For “E6: synthetic peptide fragment of human IL-2, amino acids 22-38 (QMILNGINNYKNPKLTR; UniProt P60568 42-58, looked up, fragment) [Fragment E6]”, where the note is “intravenous administration”, the “Vasopermeability activity (in words)” value was “no activity”.

The values above are taken from patent publication US6737064B2, “Method for the diagnosis of neoplastic tissue comprising administering a vasopermeability enhancing peptide of human interleukin-2” (The University of Southern California, priority 1996, dated 2004).
